From patent US20230026163A1, “ANTICANCER COMPOUND AND MEDICAL USE THEREOF” (ASCENTAWITS PHARMACEUTICALS, LTD., priority 2019, published 2023)
Read-outs that look alike come from different tables or passages of the source.

Columns and labels:
H460 cell line [1] = conditions: test results in WO2016210175A1 and CN108024974A, cited from earlier work
[2] = test system: H460 non-small cell lung cancer; conditions: cited from earlier work
Plasma stability, rat = type: in vitro ADME; conditions: Rat plasma, 5 μM, 37° C., after 30 minutes
Experimental: (§1) Frozen plasma was melted immediately in a water bath at 37° C. […] The supernatants were collected into new tubes, respectively. pH values of the plasma were checked and recorded. Note: a, no more 2 times melted plasma was used since the sample was received; b, the plasma in pH 7 to pH 8 was used.
(§2) 1 mM of working solution of the test compounds and the control compound, propantheline, were prepared in DMSO. 1 mM of working solution of the control compound in […] was prepared in acetonitrile. 4 μL of the working solutions were added to 796 μL of pre-incubated plasma respectively to achieve a final concentration of 5 μM. The final concentration of solvent was 0.5%.
(§3) […] The test was performed in duplicate. […] 50 μL of the labeled plasma was added to new tubes containing 300 μL of the quench solution of room temperature, i.e., the sample with a preparation time of 0. The samples were vortexed to mix for 5 minutes. […] 100 μL of the supernatant was transferred to new plates.

Plasma stability, dog = type: in vitro ADME; conditions: Dog plasma, 5 μM, 37° C., after 30 minutes
Experimental: as §1, §2, §3

Plasma stability, monkey = type: in vitro ADME; conditions: 5 μM, 37° C., after 30 minutes
Experimental: as §1, §2, §3

Plasma stability, mouse = type: in vitro ADME; conditions: Mouse plasma, 5 μM, 37° C., after 30 minutes
Experimental: as §1, §2, §3

Plasma stability, human = type: in vitro ADME; conditions: 5 μM, 37° C., after 30 minutes
Experimental: as §1, §2
Aliquots of 50 μL of labelled plasma were transferred to new tubes and incubated in a water bath at 37° C. at approximately 60 rpm for 2 hours. The test was performed in duplicate. […] 50 μL of the labeled plasma was added to new tubes containing 300 μL of the quench solution of room temperature, i.e., the sample with a preparation time of 0. The samples were vortexed to mix for 5 minutes. […] 100 μL of the supernatant was transferred to new plates.

P-glycoprotein [3] = biological target: T1, P-glycoprotein (Homo sapiens, UniProt P08183); set-up: expressed in transfected cells; host or cells: MDCKII-MDR1 (MDCKII canine kidney cells); conditions: cited from earlier work
T1 sequence (P08183 whole entry): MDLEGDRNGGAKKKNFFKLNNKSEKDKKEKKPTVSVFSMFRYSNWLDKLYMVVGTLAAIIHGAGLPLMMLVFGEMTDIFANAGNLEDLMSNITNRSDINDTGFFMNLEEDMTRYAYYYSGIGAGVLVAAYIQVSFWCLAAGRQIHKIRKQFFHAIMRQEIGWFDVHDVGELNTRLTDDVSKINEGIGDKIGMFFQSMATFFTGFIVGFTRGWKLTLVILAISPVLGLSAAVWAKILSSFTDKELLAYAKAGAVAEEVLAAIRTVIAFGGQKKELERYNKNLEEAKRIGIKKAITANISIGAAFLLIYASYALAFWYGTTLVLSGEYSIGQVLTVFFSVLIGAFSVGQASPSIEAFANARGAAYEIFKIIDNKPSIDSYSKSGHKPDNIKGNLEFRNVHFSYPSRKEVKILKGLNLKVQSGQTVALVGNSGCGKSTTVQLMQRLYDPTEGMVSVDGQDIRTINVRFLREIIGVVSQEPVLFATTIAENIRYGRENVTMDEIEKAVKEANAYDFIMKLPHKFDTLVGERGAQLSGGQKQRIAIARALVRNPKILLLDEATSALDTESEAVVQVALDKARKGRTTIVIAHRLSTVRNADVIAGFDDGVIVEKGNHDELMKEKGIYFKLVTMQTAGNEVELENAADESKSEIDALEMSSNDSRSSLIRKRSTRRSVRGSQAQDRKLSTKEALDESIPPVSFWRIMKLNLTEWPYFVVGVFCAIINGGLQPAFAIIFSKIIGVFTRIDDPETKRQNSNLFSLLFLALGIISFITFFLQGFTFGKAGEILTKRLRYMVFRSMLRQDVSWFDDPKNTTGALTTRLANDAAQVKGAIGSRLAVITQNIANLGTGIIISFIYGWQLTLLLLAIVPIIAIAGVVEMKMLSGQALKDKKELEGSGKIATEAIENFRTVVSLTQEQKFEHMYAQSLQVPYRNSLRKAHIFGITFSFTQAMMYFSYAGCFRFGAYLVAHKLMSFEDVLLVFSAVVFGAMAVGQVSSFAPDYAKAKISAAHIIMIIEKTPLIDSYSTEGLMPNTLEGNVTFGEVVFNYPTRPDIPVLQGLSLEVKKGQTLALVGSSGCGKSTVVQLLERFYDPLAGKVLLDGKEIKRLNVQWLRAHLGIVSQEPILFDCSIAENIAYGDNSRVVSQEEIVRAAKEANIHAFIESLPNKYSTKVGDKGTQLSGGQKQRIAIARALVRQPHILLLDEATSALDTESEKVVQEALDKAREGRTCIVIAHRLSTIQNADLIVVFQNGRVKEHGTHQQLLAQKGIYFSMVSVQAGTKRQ

P-glycoprotein [4] = biological target: T1, P-glycoprotein; experiment: in vitro; conditions: MDCK-MDR1; for Papp A→B at 2 h / Papp B→A at 2 h: dog
Experimental: MDCKII-MDR1 cells were incubated in cell culture flasks. The incubator was set at 37° C., 5% CO2, and a guaranteed relative humidity of 95%. When the cells reached 70 to 90% confluence, the cells may be seeded to transwells.
50 μL of the cell suspensions were added to the apical chambers of each well of the 96-well transwells at a final seeding density of 5.45×10^5 cells/cm^2.
MDCKII-MDR1 cells may be fully confluent and differentiated after 4 to 8 days of incubation. At this time, the cells may be applied to penetration test. The monolayer membrane resistance was measured with a resistance meter (Millipore), and the resistance per well was recorded. After the test, the transwells were returned to the incubator.
The transwells with MDCKII-MDR1 cells were taken from the incubator. The cell monolayers were rinsed twice with buffer and incubated at 37° C. for 30 minutes.
The rate of the compounds from an apical end to a basolateral end was determined. 75 μL of the buffer containing the test sample was added to each well of the apical chambers (apical end), and 235 μL of the buffer was added to each well of the basolateral chambers (basolateral end).
The rate of the compounds transporting from the basolateral end to the apical end was determined. 75 μL of the buffer was added to the apical chambers (apical end), and 235 μL of the buffer containing the test sample was added to the basolateral chamber (basolateral end).
After the apical chambers and the basolateral chambers were combined respectively, the transwells were incubated at 37° C. for 2 hours.
After incubation, 50 μL of the sample from each well of the apical chambers and the basolateral chambers of the transwells was transferred to new sample tubes respectively. 200 μL of acetonitrile (100 nM of Alprazolam, 200 nM of Labetalol, 200 nM of caffeine, and 2 μM of Ketoprofen) as an internal standard was added to the sample tubes, vortexed for 10 minutes, and centrifuged at 3220 g for 30 minutes. 100 μL of the supernatant was taken and diluted with an equal volume of water for LC-MS/MS analysis. Each sample was incubated in triplicate.
Peak-areas were calculated from ion chromatography results. The apparent permeability coefficient (Papp, unit: cm/s×10-6) of the compounds was calculated by the following formula.
In the formula, VA was the volume of the solution at the acceptor end (Ap→B1 was 0.235 mL, and B1→Ap was 0.075 mL), Area was the membrane area (0.143 cm^2) of 96-well transwell, time was the incubation time (unit: s), [drug]acceptor referred to the drug concentration of the acceptor end after incubation, and [drug]initial,donor referred to the initial concentration of the donor end before incubation.
Efflux ratio was calculated with the following formula.
In the formula, Papp(B_A) was the apparent permeability coefficient from the basolateral end to the apical end, and Papp(A-B) was the apparent permeability coefficient from the apical end to the basolateral end.
The recovery rate was calculated with the following formula.
In the formula, VA was the solution volume of the acceptor end (unit: mL), VD was the solution volume of the donor end (unit: mL), [drug]acceptor referred to the drug concentration of the acceptor end after incubation, and [drug]initial,donor referred to the initial concentration of the donor end before incubation.

H460 cell line [5] = experiment: Hypoxia-dependent cytotoxicity experiment (2 hours exposure, air or N2, CTG); type: cell-based; conditions: Homo sapiens, then 3 days
Experimental: To determine the effect of the compounds of the present disclosure on cancer cell proliferation, these compounds were tested for cancer cell anti-proliferative activity in a porous CTG-based assay. Cell growth was compared in the present (treatment groups) and the absence of the test compound. 10,000 cells/well/495 μL of medium was used to test the following cell line, a human tumor cell line of H460 non-small cell lung cancer. The cells were seeded on glass-inserts located in each well of 24-well plates with a density and medium as specified above. 24 hours later, the plates were divided into 2 groups, hypoxia (using N2) group and air group. TH-302 at the concentrations from 100, 10, 0.1 to 0.01 μM, and the test compounds at the concentrations from 10, 1, 0.1, 0.01, 0.001 to 0.0001 were added to each well (500 μL volume) of the treatment groups. The final DMSO concentration in each well was lower than or equal to 1%. The cells in the hypoxia group were incubated for 2 hours in an ELECTROTEK hypoxia workstation. The cells in the air group were incubated for 2 hours in a standard culture incubator. 2 hours later, the test compounds were removed from each well. The cells were washed with 500 μL of medium and incubated in 500 μL of fresh medium for 3 days. 3 days later, 200 μL of medium per well was discarded. 60 μL of CTG was added to the wells, and the plates were placed at room temperature for 15 minutes in the dark. 100 μL of medium from each well of the 24-well plates was transferred to 96-well plates. The chemiluminescence signal values were read with an M5 full-band multi-mode-function microplate reader, and integration=750 ms. The compounds of control 1 and control 2 were used as controls.

AA8 = experiment: Cytotoxicity on cell lines of different species: AA8; type: cell-based
H460 = experiment: Cytotoxicity on cell lines of different species: H460; type: cell-based; conditions: NCI-H460; H460, Human; exposure time: 72 h
H460 cell line [6] = experiment: Cytotoxicity comparison of TH-302 and compound 01 on H460 at different test times; type: cell-based, human; conditions: Homo sapiens, NCI-H460, 2 h, H460, exposure for 2 hours, air
Source text: The cytotoxicity test results of TH-302 and compound 01 on H460 cell line under different test times in the same laboratory, the same operator, and the same experimental conditions.

[7] = test results in WO2016210175A1 and CN108024974A

**Q.** For `C[C@H](OP(=O)(N1CC1)N1CC1)c1ccc([N+](=O)[O-])cc1` [TH2566], which IC50 (H460 cell line [1]; read-out: N2: IC50) is on record?
**A.** 23 µM

**Q.** And the IC50 (H460 cell line [1]; read-out: Normoxia: IC50)?
**A.** 0.1 µM

**Q.** What about the IC50 [2, 7] of the same compound?
**A.** 0.1 µM

**Q.** Which IC50 (H460 cell line [1]; read-out: N2: IC50) does the source give for `C[C@@H](OP(=O)(N1CC1)N1CC1)c1ccc([N+](=O)[O-])cc1` [TH2565] here?
**A.** 18 µM

**Q.** What about the IC50 (H460 cell line [1]; read-out: Normoxia: IC50) of the same compound?
**A.** 0.1 µM

**Q.** And the IC50 [2, 7]?
**A.** 0.1 µM

**Q.** What does the source list for `CC[C@H](C)C(=O)O[C@H]1C[C@@H](C)C=C2C=C[C@H](C)[C@H](CC[C@@H]3C[C@@H](O)CC(=O)O3)[C@H]21` [Lovastatin, reference compound]?
**A.** Remaining percentage (Plasma stability, rat): 0.21%; Remaining percentage (Plasma stability, dog): 37.6%

**Q.** With `CC(C)[N+](C)(CCOC(=O)C1c2ccccc2Oc2ccccc21)C(C)C` [Propantheline, reference compound] as the compound, how does the Remaining percentage (Plasma stability, monkey) read?
**A.** 48.11%

**Q.** What about the Remaining percentage (Plasma stability, mouse) of the same compound?
**A.** 5.33%

**Q.** And the Remaining percentage (Plasma stability, human)?
**A.** 0.07%

**Q.** Which “P-gp substrate (known / earlier data and literature)” value (P-glycoprotein [3]) does the source give for `Cc1ccc(NC(=O)c2ccc(CN3CCN(C)CC3)cc2)cc1Nc1nccc(-c2cccnc2)n1` [Imatinib, reference compound] here?
**A.** known P-gp substrates

**Q.** What about the “Papp (A-B)” value (P-glycoprotein [4]) of the same compound?
**A.** 21.94 10^−6, cm/s

**Q.** What about the “Papp (B-A)” value (P-glycoprotein [4]) of the same compound?
**A.** 18.69 10^−6, cm/s

**Q.** What about the Papp A→B at 2 h (P-glycoprotein [4]) of the same compound?
**A.** 2.24 ×10⁻⁶ cm/s

**Q.** And the Papp B→A at 2 h (P-glycoprotein [4])?
**A.** 24.1 ×10⁻⁶ cm/s

**Q.** What does the source list for `COc1cc2nc(N3CCN(C(=O)c4ccco4)CC3)nc(N)c2cc1OC` [Prazosin, reference compound]?
**A.** P-gp substrate (known / earlier data and literature) (P-glycoprotein [3]): known P-gp substrates; Papp (A-B) (P-glycoprotein [4]): 28.47 10^−6, cm/s; Papp (B-A) (P-glycoprotein [4]): 14.14 10^−6, cm/s; Papp A→B at 2 h (P-glycoprotein [4]): 14 ×10⁻⁶ cm/s; Papp B→A at 2 h (P-glycoprotein [4]): 28.2 ×10⁻⁶ cm/s

**Q.** What does the source list for `Cn1c(COP(=O)(NCCBr)NCCBr)cnc1[N+](=O)[O-]` [Control 1, Evofosfamide, reference compound]?
**A.** P-gp substrate (known / earlier data and literature) (P-glycoprotein [3]): P-gp substrate; IC50 (H460 cell line [5]; NCI-H460, H460, air, read-out: Normoxia: IC50): 7.98 µM; IC50 (H460 cell line [5]; NCI-H460, H460, hypoxia (N2), read-out: N2: IC50): 0.0479 µM; IC50 (AA8; CHO-AA8, AA8, Rat, exposure time: 72 h): 830 µM; Multiple: Rat/Human (AA8; IC50 AA8 / IC50 H460): 41.5; IC50 ([2]; value from published literature (Meng et al., Mol Cancer Ther 2012)): 0.8 µM; IC50 (H460): 20 µM; IC50 (H460 cell line [6]; Time 1): 23 µM; IC50 (H460 cell line [6]; Time 2): 8 µM; IC50 (H460 cell line [6]; Time 3): 3.3 µM
